Test results taken from article PMC9288506, “Compounds activating VCP D1 ATPase enhance both autophagic and proteasomal neurotoxic protein clearance” (Nature Communications, 2022).

Experiments:
Test in all cases: biochemical
Design in all cases: Thermo Fisher in vitro kinase panel, per cent inhibition of kinase activity at 10 uM
AKT2 (PKB beta) = AKT2 (PKB beta) (Homo sapiens, UniProt P31751)
Procedure: (§1) Kinase profiling of SMER28 and analogs SMER28 and analogs were tested at 10 µM in a panel of 123 kinases at ThermoFisher Scientific. Follow-up of selected kinases for SMER28 and analogs was also performed at ThermoFisher Scientific. Data are shown in Supplementary Data 2 and 3. […] An inhibition of PIK3C could induce autophagy, mediated by signaling through the AKT/mTOR axis[45].

AXL = AXL (Homo sapiens, UniProt P30530)
Procedure: as §1

CAMK2B (CaMKII beta) = CAMK2B (CaMKII beta) (Homo sapiens, UniProt Q13554)
Procedure: as §1

CDK1/cyclin B = CDK1/cyclin B (Homo sapiens, UniProt P06493)
Procedure: as §1

CDK2/cyclin A = CDK2/cyclin A (Homo sapiens, UniProt P24941)
Procedure: as §1

CDK7/cyclin H/MNAT1 = CDK7/cyclin H/MNAT1 (Homo sapiens, UniProt P50613)
Chain of CDK7/cyclin H/MNAT1 (P50613 whole entry): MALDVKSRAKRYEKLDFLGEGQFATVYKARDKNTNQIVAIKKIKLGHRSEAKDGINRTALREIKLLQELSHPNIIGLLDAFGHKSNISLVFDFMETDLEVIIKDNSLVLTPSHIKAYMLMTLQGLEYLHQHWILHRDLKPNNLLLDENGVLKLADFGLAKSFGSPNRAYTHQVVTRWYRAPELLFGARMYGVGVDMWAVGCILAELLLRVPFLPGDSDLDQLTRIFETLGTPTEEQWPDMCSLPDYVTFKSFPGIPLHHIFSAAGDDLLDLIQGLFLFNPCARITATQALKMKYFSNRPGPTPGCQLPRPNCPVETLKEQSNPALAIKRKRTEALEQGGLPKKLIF
Chain of CDK7/cyclin H/MNAT1 (P51946 whole entry partner): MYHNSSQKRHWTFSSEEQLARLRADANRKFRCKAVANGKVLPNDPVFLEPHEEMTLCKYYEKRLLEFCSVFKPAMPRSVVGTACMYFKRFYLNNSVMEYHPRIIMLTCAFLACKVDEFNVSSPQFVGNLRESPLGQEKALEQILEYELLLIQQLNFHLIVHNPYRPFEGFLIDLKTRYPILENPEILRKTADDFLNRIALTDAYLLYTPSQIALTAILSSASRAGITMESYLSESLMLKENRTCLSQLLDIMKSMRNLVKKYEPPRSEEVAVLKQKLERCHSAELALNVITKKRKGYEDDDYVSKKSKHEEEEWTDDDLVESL
Chain of CDK7/cyclin H/MNAT1 (P51948 whole entry partner): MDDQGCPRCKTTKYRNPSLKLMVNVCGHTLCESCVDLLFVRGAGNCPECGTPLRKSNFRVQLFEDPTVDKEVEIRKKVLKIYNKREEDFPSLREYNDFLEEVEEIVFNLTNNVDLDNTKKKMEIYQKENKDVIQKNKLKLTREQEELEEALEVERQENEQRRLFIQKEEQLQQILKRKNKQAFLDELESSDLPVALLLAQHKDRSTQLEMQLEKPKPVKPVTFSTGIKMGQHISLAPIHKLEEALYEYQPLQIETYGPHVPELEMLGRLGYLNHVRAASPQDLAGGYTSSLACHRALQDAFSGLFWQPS
Procedure: as §1

DNA-PK = biological target: T1, DNA-PK (Homo sapiens, UniProt P78527)
T1 construct: gene PRKDC
Procedure: as §1

EGFR (ErbB1) = EGFR (ErbB1) (Homo sapiens, UniProt P00533)
Procedure: as §1

EPHB1 = EPHB1 (Homo sapiens, UniProt P54762)
Procedure: as §1

ERBB2 (HER2) = ERBB2 (HER2) (Homo sapiens, UniProt P04626)
Procedure: as §1

IKBKB (IKK beta) = IKBKB (IKK beta) (Homo sapiens, UniProt O14920)
Procedure: as §1

JAK1 = JAK1 (Homo sapiens, UniProt P23458)
Procedure: as §1

KDR (VEGFR2) = KDR (VEGFR2) (Homo sapiens, UniProt P35968)
Procedure: as §1

MAPKAPK5 (PRAK) = MAPKAPK5 (PRAK) (Homo sapiens, UniProt Q8IW41)
Procedure: as §1

MET (cMet) = MET (cMet) (Homo sapiens, UniProt P08581)
Procedure: as §1

MST1R (RON) = MST1R (RON) (Homo sapiens, UniProt Q04912)
Procedure: as §1

PAK1 = PAK1 (Homo sapiens, UniProt Q13153)
Procedure: as §1

PI4KB (PI4K beta) = PI4KB (PI4K beta) (Homo sapiens, UniProt Q9UBF8)
Procedure: as §1

[1] = biological target: PIK3CA/PIK3R1 (p110 alpha/p85 alpha) (Homo sapiens, UniProt P42336)
Chain of PIK3CA/PIK3R1 (p110 alpha/p85 alpha) (P42336 whole entry): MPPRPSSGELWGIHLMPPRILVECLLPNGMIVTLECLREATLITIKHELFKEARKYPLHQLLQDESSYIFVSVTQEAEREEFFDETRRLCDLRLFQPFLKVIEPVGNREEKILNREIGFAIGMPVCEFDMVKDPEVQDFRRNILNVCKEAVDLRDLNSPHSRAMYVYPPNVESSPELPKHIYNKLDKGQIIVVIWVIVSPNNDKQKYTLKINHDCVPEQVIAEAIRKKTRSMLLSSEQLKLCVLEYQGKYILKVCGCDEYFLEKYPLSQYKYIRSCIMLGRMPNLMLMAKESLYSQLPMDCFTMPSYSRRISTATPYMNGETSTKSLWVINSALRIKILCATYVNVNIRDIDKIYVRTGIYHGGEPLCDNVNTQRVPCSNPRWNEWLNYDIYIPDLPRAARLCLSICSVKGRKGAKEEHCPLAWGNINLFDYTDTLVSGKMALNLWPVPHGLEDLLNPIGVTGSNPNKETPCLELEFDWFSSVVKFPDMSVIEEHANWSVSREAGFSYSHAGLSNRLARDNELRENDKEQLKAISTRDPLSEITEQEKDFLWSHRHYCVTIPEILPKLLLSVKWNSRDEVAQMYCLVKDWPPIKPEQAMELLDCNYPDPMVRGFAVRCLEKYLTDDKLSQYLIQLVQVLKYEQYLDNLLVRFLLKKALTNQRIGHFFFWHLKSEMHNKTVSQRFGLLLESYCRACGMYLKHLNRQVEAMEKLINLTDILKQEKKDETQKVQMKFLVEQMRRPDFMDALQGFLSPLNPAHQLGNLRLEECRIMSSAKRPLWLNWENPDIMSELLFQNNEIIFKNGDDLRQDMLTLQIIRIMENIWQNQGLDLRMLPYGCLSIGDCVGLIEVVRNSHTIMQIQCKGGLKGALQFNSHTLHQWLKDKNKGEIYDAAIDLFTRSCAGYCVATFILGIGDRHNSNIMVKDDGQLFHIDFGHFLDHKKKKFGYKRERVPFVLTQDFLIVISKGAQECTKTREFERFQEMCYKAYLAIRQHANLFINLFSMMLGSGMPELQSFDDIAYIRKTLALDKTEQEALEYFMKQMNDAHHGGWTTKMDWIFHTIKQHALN
Chain of PIK3CA/PIK3R1 (p110 alpha/p85 alpha) (P27986 whole entry partner): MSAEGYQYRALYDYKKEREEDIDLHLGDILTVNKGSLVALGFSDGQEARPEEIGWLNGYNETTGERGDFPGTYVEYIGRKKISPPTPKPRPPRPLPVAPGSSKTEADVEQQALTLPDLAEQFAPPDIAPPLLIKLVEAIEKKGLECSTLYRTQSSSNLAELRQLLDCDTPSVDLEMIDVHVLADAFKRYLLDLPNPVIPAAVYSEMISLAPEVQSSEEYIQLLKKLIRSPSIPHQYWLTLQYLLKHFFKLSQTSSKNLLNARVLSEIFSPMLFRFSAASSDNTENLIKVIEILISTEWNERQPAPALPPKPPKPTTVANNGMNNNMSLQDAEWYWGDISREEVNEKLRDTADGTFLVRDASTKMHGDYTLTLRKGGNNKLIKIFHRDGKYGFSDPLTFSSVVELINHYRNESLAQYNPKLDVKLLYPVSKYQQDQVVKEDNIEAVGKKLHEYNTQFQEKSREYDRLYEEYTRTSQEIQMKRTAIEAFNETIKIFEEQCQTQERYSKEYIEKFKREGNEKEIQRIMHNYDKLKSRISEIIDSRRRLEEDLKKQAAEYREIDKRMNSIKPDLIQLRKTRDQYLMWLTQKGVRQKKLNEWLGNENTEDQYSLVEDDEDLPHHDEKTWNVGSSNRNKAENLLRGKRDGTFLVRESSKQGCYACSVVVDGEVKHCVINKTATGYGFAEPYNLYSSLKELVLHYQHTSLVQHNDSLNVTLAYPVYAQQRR
Procedure: as §1

PTK2 (FAK) = PTK2 (FAK) (Homo sapiens, UniProt Q05397)
Chain of PTK2 (FAK) (Q05397 whole entry): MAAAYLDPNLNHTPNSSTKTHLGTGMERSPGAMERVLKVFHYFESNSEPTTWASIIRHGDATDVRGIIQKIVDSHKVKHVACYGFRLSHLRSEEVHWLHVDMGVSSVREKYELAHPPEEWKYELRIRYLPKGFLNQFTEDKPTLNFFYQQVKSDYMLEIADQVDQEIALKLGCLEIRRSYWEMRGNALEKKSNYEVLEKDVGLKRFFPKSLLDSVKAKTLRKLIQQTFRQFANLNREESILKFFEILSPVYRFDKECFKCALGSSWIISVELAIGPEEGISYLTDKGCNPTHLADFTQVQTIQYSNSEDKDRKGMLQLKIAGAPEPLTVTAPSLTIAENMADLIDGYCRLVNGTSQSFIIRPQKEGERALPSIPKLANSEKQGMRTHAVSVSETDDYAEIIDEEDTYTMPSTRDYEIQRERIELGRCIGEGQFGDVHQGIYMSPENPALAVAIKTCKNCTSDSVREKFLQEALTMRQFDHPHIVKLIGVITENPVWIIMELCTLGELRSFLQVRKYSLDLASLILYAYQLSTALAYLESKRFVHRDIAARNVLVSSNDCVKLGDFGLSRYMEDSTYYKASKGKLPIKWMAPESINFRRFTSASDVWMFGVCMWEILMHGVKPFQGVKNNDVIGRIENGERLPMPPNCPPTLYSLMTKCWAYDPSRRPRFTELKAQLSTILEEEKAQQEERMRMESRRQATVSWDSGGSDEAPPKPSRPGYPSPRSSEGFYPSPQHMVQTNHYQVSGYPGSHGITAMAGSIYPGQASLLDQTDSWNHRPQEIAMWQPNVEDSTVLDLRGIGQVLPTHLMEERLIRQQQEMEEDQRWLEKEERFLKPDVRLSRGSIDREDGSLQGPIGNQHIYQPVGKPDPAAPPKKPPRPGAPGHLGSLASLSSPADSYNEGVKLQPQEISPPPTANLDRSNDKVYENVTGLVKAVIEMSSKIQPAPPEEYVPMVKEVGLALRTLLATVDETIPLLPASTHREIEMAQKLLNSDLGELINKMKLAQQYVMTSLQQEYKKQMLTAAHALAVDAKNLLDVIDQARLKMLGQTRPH
Procedure: as §1

RET = RET (Homo sapiens, UniProt P07949)
Chain of RET (P07949 whole entry): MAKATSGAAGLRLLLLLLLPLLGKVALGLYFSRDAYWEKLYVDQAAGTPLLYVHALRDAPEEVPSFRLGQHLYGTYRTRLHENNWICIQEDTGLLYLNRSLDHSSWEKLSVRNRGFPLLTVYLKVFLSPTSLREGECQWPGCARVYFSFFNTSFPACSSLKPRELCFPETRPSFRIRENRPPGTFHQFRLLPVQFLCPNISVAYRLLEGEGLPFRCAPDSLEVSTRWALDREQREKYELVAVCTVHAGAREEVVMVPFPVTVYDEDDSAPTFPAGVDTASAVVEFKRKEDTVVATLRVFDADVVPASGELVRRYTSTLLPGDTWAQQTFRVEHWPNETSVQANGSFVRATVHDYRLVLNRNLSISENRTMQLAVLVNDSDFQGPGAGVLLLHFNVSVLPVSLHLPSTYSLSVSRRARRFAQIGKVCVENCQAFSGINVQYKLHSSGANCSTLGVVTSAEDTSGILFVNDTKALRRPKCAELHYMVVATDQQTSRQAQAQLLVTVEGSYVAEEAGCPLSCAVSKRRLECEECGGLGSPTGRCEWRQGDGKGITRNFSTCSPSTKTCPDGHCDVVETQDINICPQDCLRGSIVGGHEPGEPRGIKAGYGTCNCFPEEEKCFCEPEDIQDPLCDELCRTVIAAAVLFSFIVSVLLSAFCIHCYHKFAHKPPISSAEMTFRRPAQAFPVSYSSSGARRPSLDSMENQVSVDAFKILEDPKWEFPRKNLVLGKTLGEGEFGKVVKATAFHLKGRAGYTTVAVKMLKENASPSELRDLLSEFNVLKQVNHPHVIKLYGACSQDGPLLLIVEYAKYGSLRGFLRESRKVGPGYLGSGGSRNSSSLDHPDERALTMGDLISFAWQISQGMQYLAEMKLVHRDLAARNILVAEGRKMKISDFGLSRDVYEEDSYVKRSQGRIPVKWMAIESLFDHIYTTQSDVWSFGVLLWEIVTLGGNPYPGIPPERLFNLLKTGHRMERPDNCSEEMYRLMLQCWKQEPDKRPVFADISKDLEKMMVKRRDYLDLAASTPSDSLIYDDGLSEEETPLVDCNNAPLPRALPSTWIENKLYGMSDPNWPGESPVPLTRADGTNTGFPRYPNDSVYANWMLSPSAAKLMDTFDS
Procedure: as §1

RET V804L = RET V804L (Homo sapiens, UniProt P07949, V804L)
Chain of RET V804L (P07949 whole entry V804L): as the sequence (P07949 whole entry) above, with V804L counted along it
Procedure: as §1

RPS6KB1 (p70S6K) = RPS6KB1 (p70S6K) (Homo sapiens, UniProt P23443)
Procedure: as §1

SRC = SRC (Homo sapiens, UniProt P12931)
Procedure: as §1

TGFBR1 (ALK5) = TGFBR1 (ALK5) (Homo sapiens, UniProt P36897)
Procedure: as §1

## C=CCNc1ncnc2ccc(Br)cc12 [SMER28]
AKT2 (PKB beta)
  inhibition at 10 µM: -8%
AXL
  inhibition at 10 µM: 17%
CAMK2B (CaMKII beta)
  inhibition at 10 µM: 4%
CDK1/cyclin B
  inhibition at 10 µM: 22%
CDK2/cyclin A
  inhibition at 10 µM: 15%
CDK7/cyclin H/MNAT1
  inhibition at 10 µM: 34%
DNA-PK
  inhibition at 10 µM: 37%
EGFR (ErbB1)
  inhibition at 10 µM: 12%
EPHB1
  inhibition at 10 µM: 6%
ERBB2 (HER2)
  inhibition at 10 µM: -1%
IKBKB (IKK beta)
  inhibition at 10 µM: 17%
JAK1
  inhibition at 10 µM: -13%
KDR (VEGFR2)
  inhibition at 10 µM: 13%
MAPKAPK5 (PRAK)
  inhibition at 10 µM: 8%
MET (cMet)
  inhibition at 10 µM: 8%
MST1R (RON)
  inhibition at 10 µM: -4%
PAK1
  inhibition at 10 µM: 0%
PI4KB (PI4K beta)
  inhibition at 10 µM: 66%
[1]
  inhibition at 10 µM: 78%
PTK2 (FAK)
  inhibition at 10 µM: 8%
RET
  inhibition at 10 µM: 25%
RET V804L
  inhibition at 10 µM: 30%
RPS6KB1 (p70S6K)
  inhibition at 10 µM: 22%
SRC
  inhibition at 10 µM: 2%
TGFBR1 (ALK5)
  inhibition at 10 µM: 6%
